How the values were obtained:
Type in all cases: cell-based
[1] = tested on: fungus Aspergillus brasiliensis DSM 1988; assay: Preservative activity in an enzyme (mannanase) solution of pH 6 with 2-phenoxyethanol (Example 1.4); conditions: for d0 [CFU/ml]: day 0 (inoculation); for d2 [CFU/ml]: day 2; for d7 [CFU/ml]: day 7; for d14 [CFU/ml]: day 14; for d15 [CFU/ml]: day 15 (after re-inoculation); for d22 [CFU/ml]: day 22; for d29 [CFU/ml]: day 29
Description: A enzyme solution of pH 6 containing the hydrolase mannanase of the following composition was used:
The samples were contaminated with the fungus Aspergillus brasiliensis DSM 1988.
The samples were inoculated with the fungus at day 0 and 15 to obtain 1-3×10E+05 CFU/ml inoculation in the test sample consisting of the above-defined enzyme solution and stored at 25° C. for 29 days. CFU was determined at days 0, 2, 7, 14, 15 (after re-inoculation), 22 and 29 (abbreviated d0, d2, d7, d14, d15, d22, d29).
Any CFU value at d2, d7, d14, d22 or d29 obtained with an enzyme solution sample of the invention containing 2-phenoxyethanol and amide (enzyme solution+0.7% PE+0.07% of amide) lower than the respective value of the comparative example (enzyme solution+0.7% by weight of 2-phenoxyethanol) indicates a better performance of the inventive combination of 2-phenoxyethanol with the amide.
The amide used was N,N-dimethyl-n-decanoyl amide (=n-decanoyl-N,N-dimethylamide).

[2] = tested on: fungal mix (including yeasts and molds): Aspergillus brasiliensis DSM 1988, Rhodotorula mucilaginosa DSM 13621, Yarrowia lipolytica DSM 8218; assay: Preservative activity of a basic composition (10% PG in water, pH 7) with 2-phenoxyethanol against fungal contamination (Example 1.1); conditions: 25° C.; for d21 [CFU/ml]: day 21
Description: An aqueous composition of pH 7 comprising 10% by weight of propyleneglycol (PG) as organic solvent, 0.36% by weight of 2-phenoxyethanol (PE) as antimicrobial and 0.04% by weight of the amide listed in the below table was tested for its preserving activity against fungal contamination (the percentages are weight percent and relate to the total weight of the composition). For this purpose, the samples were contaminated with a fungal mix (including yeasts and molds) consisting of: • Aspergillus brasiliensis DS M 1988 • Rhodotorula mucilaginosa DSM 13621 • Yarrowia lipolytica DS M 8218
To control the efficacy, following control compositions were tested: • “Reference”, consisting of only 10% by weight of propylene glycol in water • “Comparative 1” containing 10% by weight of propylene glycol and amide in the given concentration, but no 2-phenoxyethanol • […] in the given concentration, but no amide.
The samples were inoculated with the fungal mix at day 0, 7 and 14 to obtain a cell density in the range of 1-3×10E+05 CFU/ml (CFU=colony forming units) in the test samples (compositions listed in the below table) and stored at 25° C. for 21 days.
CFU was determined before re-inoculation at days 7 and 14, and on day 21.

[3] = tested on: fungal mix: Aspergillus brasiliensis DSM 1988, Rhodotorula mucilaginosa DSM 13621, Yarrowia lipolytica DSM 8218; assay: Preservative activity in a manual dishwashing composition (MDW, pH 7.1) with 1.0% 2-phenoxyethanol against fungal mix (Example 1.2); conditions: MDW + 1.0% PE, no amide (Comparative)
Description: (§1) A manual dish wash detergent (MDW) of pH 7.1 containing the following components was used:
(§2) The samples were contaminated with a fungal mix consisting of: • Aspergillus brasiliensis DSM 1988 • Rhodotorula mucilaginosa DSM 13621 • Yarrowia lipolytica DSM 8218
(§3) The samples were inoculated with the fungal mix at day 0 and 7 to obtain 1-3×10E+05 CFU/ml inoculation in the test sample consisting of the above-defined dish wash detergent MDW and stored at 25° C. for 21 days. CFU was determined before re-inoculation at day 7, and on days 14 and 21.
Any CFU value at d7, d14 or d21 obtained with a MDW sample of the invention containing 2-phenoxyethanol and amide (MDW+1.0% PE+x % of Amide) lower than the respective value of the comparative example (MDW+1.0% by weight of 2-phenoxyethanol) indicates a better performance of the inventive combination of 2-phenoxyethanol with the amide.

[4] = tested on: fungal mix: Aspergillus brasiliensis DSM 1988, Rhodotorula mucilaginosa DSM 13621, Yarrowia lipolytica DSM 8218; assay: Preservative activity in a manual dishwashing composition (MDW, pH 7.1) with 2.0% 2-phenoxyethanol against fungal mix (Example 1.3); conditions: for d7 [CFU/ml]: day 7; for d14 [CFU/ml]: day 14; for d21 [CFU/ml]: day 21
Description: as §1, §2, §3
Any CFU value at d7, d14 or d21 obtained with a MDW sample of the invention containing 2-phenoxyethanol and amide (MDW+2.0% PE+1% of Amide) lower than the respective value of the “comparative 2” example (MDW+2.0% by weight of 2-phenoxyethanol) indicates a better performance of the inventive combination of 2-phenoxyethanol with the amide.

[5] = tested on: bacterial mix: Escherichia coli DSM 1576, Alcaligenes faecalis DSM 13644, Pseudomonas aeruginosa ATCC 15442, Staphylococcus aureus ATCC 6538, Burkholderia …; assay: Preservative activity of a basic composition (10% PG in water, pH 7) with 1,2-benzisothiazol-3(2H)-one (BIT) against bacterial contamination (Example 2.3); conditions: day 7
Description: An aqueous composition of pH 7 comprising 10% by weight of propyleneglycol (PG) as organic solvent, 0.004% by weight of 1,2-benzisothiazol-3(2H)-one (BIT) as antimicrobial and 0.04% by weight of the amide listed in the below table was tested for its preserving activity against bacterial contamination (the percentages are weight percent and relate to the total weight of the composition). For this purpose, the samples were contaminated with a bacterial mix consisting of: • Escherichia coli DSM 1576 • Alcaligenes faecalis DSM 13644 • Pseudomonas aeruginosa ATCC 15442 • Staphylococcus aureus ATCC 6538 • Burkholderia cepacia DSM 7288 • Pseudomonas putida DSM 12735
The samples were inoculated with the bacterial mix at day 0 to obtain 10E+06 to 10E+07 CFU/ml inoculation in the test sample and stored at 25° C. for 7 days.
CFU was determined at day 7.
Any CFU value at day 7 (d7) obtained with a sample according to the invention containing BIT and amide (10% PG+0.004% BIT+Amide in water) lower than the respective value of the “comparative 2” example (10% by weight of propyleneglycol+0.004% by weight of 1,2-benzisothiazol-3(2H)-one (BIT) in water) indicates a better performance.

[6] = Enzyme solution + 0.7% PE, no amide (Comparative)
[7] = MDW + 2.0% PE, no amide (Comparative 2)
[8] = Enzyme solution + 0.7% PE + 0.07% amide
[9] = MDW + 1.0% amide, no PE (Comparative 1)

OCCOc1ccccc1 [PE, 2-phenoxyethanol, reference compound]
d0 [CFU/ml] [1, 6]: 110,000 CFU/ml
d2 [CFU/ml] [1, 6]: 92,000 CFU/ml
d7 [CFU/ml] [1, 6]: 29,000 CFU/ml
d14 [CFU/ml] [1, 6]: 21,000 CFU/ml
d15 [CFU/ml] [1, 6]: 300,000 CFU/ml
d22 [CFU/ml] [1, 6]: 67,000 CFU/ml
d29 [CFU/ml] [1, 6]: 100,000 CFU/ml
d7 [CFU/ml] ([2]; 10% PG + 0.4% PE, no amide (Comparative 2), fungal mix inoculated at day 0, 7 and 14, day 7): 10,000 CFU/ml
d14 [CFU/ml] ([2]; 10% PG + 0.4% PE, no amide (Comparative 2), fungal mix inoculated at day 0, 7 and 14, day 14): 16,000 CFU/ml
d21 [CFU/ml] ([2]; 10% PG + 0.4% PE, no amide (Comparative 2), fungal mix inoculated at day 0, 7 and 14): 38,500 CFU/ml
d7 [CFU/ml] ([3]; day 7): 38,000 CFU/ml
d14 [CFU/ml] ([3]; day 14): 27,000 CFU/ml
d21 [CFU/ml] ([3]; day 21): 3,700 CFU/ml
d7 [CFU/ml] [4, 7]: 27,500 CFU/ml
d14 [CFU/ml] [4, 7]: 22,000 CFU/ml
d21 [CFU/ml] [4, 7]: 18,000 CFU/ml

CCCCCCCCCC(=O)N(C)C [n-Decanoyl-N,N-dimethylamide]
d0 [CFU/ml] ([1]; Enzyme solution + 0.7% PE + 0.07% amide (N,N-dimethyl-n-decanoyl amide)): 110,000 CFU/ml
d2 [CFU/ml] [1, 8]: 80,000 CFU/ml
d7 [CFU/ml] [1, 8]: 240 CFU/ml
d14 [CFU/ml] [1, 8]: 30 CFU/ml
d15 [CFU/ml] [1, 8]: 300,000 CFU/ml
d22 [CFU/ml] [1, 8]: 14,000 CFU/ml
d29 [CFU/ml] [1, 8]: 70 CFU/ml
d7 [CFU/ml] ([5]; 10% PG + 0.004% BIT + 0.04% amide): 4,000 CFU/ml
d7 [CFU/ml] ([5]; 10% PG + 0.1% amide, no BIT (Comparative 1)): >100,000 CFU/ml
d7 [CFU/ml] ([2]; 10% PG + 0.36% PE + 0.04% Amide in water, pH 7, fungal mix inoculated at day 0, 7 and 14 (1-3x10E+05 CFU/ml), day 7 before re-inoculation): <10 CFU/ml
d14 [CFU/ml] ([2]; 10% PG + 0.36% PE + 0.04% Amide in water, pH 7, fungal mix inoculated at day 0, 7 and 14, day 14 before re-inoculation): <10 CFU/ml
d21 [CFU/ml] ([2]; 10% PG + 0.36% PE + 0.04% Amide in water, pH 7, fungal mix inoculated at day 0, 7 and 14): <10 CFU/ml
d7 [CFU/ml] [4, 9]: 50,500 CFU/ml
d14 [CFU/ml] [4, 9]: 97,500 CFU/ml
d21 [CFU/ml] [4, 9]: 83,000 CFU/ml
d7 [CFU/ml] ([4]; MDW + 2.0% PE + 1.0% amide): 19,000 CFU/ml
d14 [CFU/ml] ([4]; MDW + 2.0% PE + 1.0% amide): 10,000 CFU/ml
d21 [CFU/ml] ([4]; MDW + 2.0% PE + 1.0% amide): 5,000 CFU/ml

Source: US20250040539A1, “COMPOSITION COMPRISING AN ANTIMICROBIAL AGENT AND A CARBOXAMIDE” (BASF SE, priority 2021, published 2025)
